According to patent US8809384B2, “Azaspirodecanone compounds” (Hoffmann-La Roche Inc., priority 2011, dated 2014):

Molecular target: T1, human HSL (Homo sapiens, UniProt Q05469)
T1 construct: generate a full length human HSL ORF with a 3′-His6 tag; made in house; host or cells: High 5 insect cells (baculovirus, pFast-BAC)
T1 sequence (Q05469 1-1076): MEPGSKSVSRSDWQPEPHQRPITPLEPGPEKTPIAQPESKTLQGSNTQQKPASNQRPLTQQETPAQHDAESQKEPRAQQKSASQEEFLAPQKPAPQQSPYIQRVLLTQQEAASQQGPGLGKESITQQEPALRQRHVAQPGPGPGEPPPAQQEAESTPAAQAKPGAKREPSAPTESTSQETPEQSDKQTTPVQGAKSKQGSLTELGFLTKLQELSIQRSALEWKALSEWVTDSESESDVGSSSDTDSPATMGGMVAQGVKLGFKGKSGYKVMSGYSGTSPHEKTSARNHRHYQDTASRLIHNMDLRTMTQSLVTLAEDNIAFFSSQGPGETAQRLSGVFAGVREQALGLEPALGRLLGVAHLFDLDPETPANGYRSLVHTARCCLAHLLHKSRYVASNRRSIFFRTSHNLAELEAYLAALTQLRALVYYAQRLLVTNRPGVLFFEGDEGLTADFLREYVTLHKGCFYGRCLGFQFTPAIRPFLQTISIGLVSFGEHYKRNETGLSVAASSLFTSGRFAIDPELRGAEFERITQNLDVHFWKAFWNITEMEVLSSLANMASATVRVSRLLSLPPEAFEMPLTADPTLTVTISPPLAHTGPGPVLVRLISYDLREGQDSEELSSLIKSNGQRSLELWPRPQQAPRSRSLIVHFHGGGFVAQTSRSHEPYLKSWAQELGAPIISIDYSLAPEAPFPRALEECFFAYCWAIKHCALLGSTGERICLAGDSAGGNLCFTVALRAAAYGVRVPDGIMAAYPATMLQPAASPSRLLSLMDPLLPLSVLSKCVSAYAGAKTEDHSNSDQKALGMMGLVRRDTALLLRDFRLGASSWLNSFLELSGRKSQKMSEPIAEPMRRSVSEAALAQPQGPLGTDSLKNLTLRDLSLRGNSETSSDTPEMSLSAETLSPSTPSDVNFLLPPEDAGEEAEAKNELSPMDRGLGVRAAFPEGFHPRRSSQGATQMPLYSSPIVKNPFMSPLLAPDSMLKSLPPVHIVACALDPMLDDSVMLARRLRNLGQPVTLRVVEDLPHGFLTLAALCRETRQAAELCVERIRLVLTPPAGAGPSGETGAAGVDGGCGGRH
Test: Human Hormone-Sensitive Lipase (HSL) enzyme inhibition assay (colorimetric, DMPT substrate)
Format: biochemical
Details: human full length HSL-His6, 2,3-dimercapto-1-propanol tributyrate substrate, 37° C., 20 minutes; read-out: HSL hum IC50
Procedure: Production of Human full length Hormone Sensitive Lipase-His^6: • 1) Cloning: cDNA was prepared from commercial human brain polyA+ RNA and used as a template in overlapping PCR to generate a full length human HSL ORF with a 3′-His6 tag. This full length insert was cloned into the pFast-BAC vector and the DNA-sequence of several single clones was verified. DNA from a correct full length clone with the 3′His6 tag was used to transform the E. coli strain DH10BAC. Resulting bacmid DNA was used to generate a titered baculovirus stock for protein generation. The sequence of the encoded HSL conforms to Swissprot entry Q05469, with the additional C-terminal His6-tag. • 2) Protein purification: Culture: 5.5 L, High 5 cells expressing human full length HSL-His^6, 48 hr., containing 25 μM E-64. Cell count: […], 90% viable. Cells were thawed. On ice, cells were suspended in Base Buffer containing 10% glycerol, 25 mM Tris-Cl, 300 mM NaCl, 10 mM imidazole, 10 mM 2-mercaptoethanol, 2 μg pepstatin/ml, 2 μg leupeptin/ml, 2 μg antipain/ml, pH 8.0 at 4° C. in a final volume of 475 ml with 3.75×10^7 cells/ml. […] was done at 3×30 sec., Lubrol PX was added to 0.2% final concentration followed by stirring for 15 min at 4° C. and centrifugation at 25 k×g, 60 min, 4° C. Soluble proteins were mixed with 60 ml of pre-washed and equilibrated Ni-NTA Agarose (Qiagen 30210) followed by tumbling end-over-end, 45 min., 4° C., centrifugation 1000 rpm 5 min and letting resin settle […]. Supernatant was removed, the resin washed in the centrifuge vessel using 5 volumes of Base Buffer containing 0.2% Lubrol PX. Centrifugation was done again, then the supernatant discarded. The resin was poured onto a 0.8 μm membrane in a disposable filter unit (Nalge 450-0080), and washed with 5 volumes of Base Buffer containing 0.2% Lubrol PX. It was then washed with 30 volumes of Base Buffer containing 60 mM imidazole pH 7.5 at 4° C. The protein was eluated with 5 volumes of 25 mM Tris-Cl, 300 mM NaCl, 200 mM imidazole, 10 mM 2-mercaptoethanol, pH 7.5 at 4° C. by tumbling resin with buffer end-over-end, 30 min., 4° C. The resin was captured on a 0.2 μm membrane disposable filter unit (Millipore SCGP U02 RE) and the eluate collected in the reservoir. The eluate was concentrated using a 30 k MWCO centrifugal filter device (Sartorius Vivascience Vivacell 100, VC1022), to 20 ml. It was then dialyzed overnight at 4° C., two times against 2 L of 10% glycerol, 25 mM Tris-Cl, 300 mM NaCl, 0.2 mM EDTA, 0.2 mM DTT, pH 7.5 at 4° C. The protein was filtered using a 0.22 μm disposable filter unit (Millipore SCGP00525). The protein concentration was calculated from absorbance at 280 nm, using 280=0.67 cm^−1 mg-1. Yield was 235 mg, total. The protein was stored at −80° C.
Human Hormone-Sensitive Lipase (HSL) Enzyme Inhibition Assay: • HSL enzyme activity was measured by a colorimetric assay using 2,3-dimercapto-1-propanol tributyrate (Aldrich, St. Louis, Mo.) as a substrate. Typically, 1.5 mM 2,3-dimercapto-1-propanol tributyrate (DMPT) in 100 mM MOPS, pH 7.2, 0.2 mg/ml fatty acid-free BSA was prepared by sonication at 4° C. to homogenous suspension. Test compounds (2 mM stock in DMSO) were diluted 3 fold in series in DMSO. Compound solutions were diluted 24 fold in 1.5 mM DMPT containing solution and 18 μl per well was added to 384-well microplates (Corning Costar). Twelve microliters per well of human HSL (15 μg/ml) was added and the reaction mixture was incubated at 37° C. for 20 minutes. Six microliters of 12 mM dithio-bis-(2-nitrobenzoic acid) (DTNB) in DMSO plus 1.2% SDS and 0.6% Triton X-100 were added and the mixture was incubated at room temperature for 15 minutes. Product production was monitored by reading absorbance at 405 nm on an Envision Reader (PerkinElmer Life and Analytical Sciences, Shelton, Conn.).

Compound | IC50 [nM]
CC1(C)CCC(=O)N1C[C@]1(O)CC[C@]2(CCN(c3ccc(C(F)(F)F)cc3)C2=O)CC1 [Example 1, (5α,8α)-8-((2,2-dimethyl-5-oxopyrrolidin-1-yl)methyl)-8-hydroxy-2-(4-(trifluoromethyl)phenyl)-2-azaspiro[4.5]decan-1-one] | 14.9
CC(C)Oc1ccc(N2CC[C@]3(CC[C@@](O)(CN4C(=O)CCC4(C)C)CC3)C2=O)cc1 [Example 2, (5α,8α)-8-((2,2-dimethyl-5-oxopyrrolidin-1-yl)methyl)-8-hydroxy-2-(4-isopropoxyphenyl)-2-azaspiro[4.5]decan-1-one] | 12.5
CC(C)Oc1ccc(N2CC[C@]3(CC[C@@](O)(CN4CCN(C)C4=O)CC3)C2=O)cc1 [Example 3, (5α,8α)-8-hydroxy-2-(4-isopropoxyphenyl)-8-((3-methyl-2-oxoimidazolidin-1-yl)methyl)-2-azaspiro[4.5]decan-1-one] | 23.9
CC(C)Oc1ccc(N2CC[C@]3(CC[C@@](O)(CN4C(=O)CCC45CC5)CC3)C2=O)cc1 [Example 4, (5α,8α)-8-Hydroxy-2-(4-isopropoxy-phenyl)-8-(5-oxo-4-aza-spiro[2.4]hept-4-ylmethyl)-2-aza-spiro[4.5]decan-1-one] | 11.4
CC(C)Oc1ccc(N2CC[C@]3(CC[C@@](O)(CN4CCOC4=O)CC3)C2=O)cc1 [Example 5, 3-(((5α,8α)-8-Hydroxy-2-(4-isopropoxyphenyl)-1-oxo-2-azaspiro[4.5]decan-8-yl)methyl)oxazolidin-2-one] | 5.9
CC(C)Oc1ccc(N2CC[C@]3(CC[C@@](O)(CN4CC[C@@H](O)C4=O)CC3)C2=O)cc1 [Example 6, (5α,8α)-8-Hydroxy-8-(((R)-3-hydroxy-2-oxopyrrolidin-1-yl)methyl)-2-(4-isopropoxyphenyl)-2-azaspiro[4.5]decan-1-one] | 60
CC(C)Oc1ccc(N2CC[C@]3(CC[C@@](O)(CN4CCN(C)C4=O)CC3)C2=O)cn1 [Example 7, (5α,8α)-8-Hydroxy-2-(6-isopropoxy-pyridin-3-yl)-8-(3-methyl-2-oxo-imidazolidin-1-ylmethyl)-2-aza-spiro[4.5]decan-1-one] | 138
CC(C)Oc1ccc(N2CC[C@]3(CC[C@@](O)(CN4CCNC4=O)CC3)C2=O)cn1 [Example 8, (5α,8α)-8-hydroxy-2-(6-isopropoxypyridin-3-yl)-8-((2-oxoimidazolidin-1-yl)methyl)-2-azaspiro[4.5]decan-1-one] | 300
CC1(C)CCC(=O)N1C[C@]1(O)CC[C@]2(CCN(c3ccc([C@@H](O)C(F)(F)F)cc3)C2=O)CC1 [Example 9, (5α,8α)-8-(2,2-Dimethyl-5-oxo-pyrrolidin-1-ylmethyl)-8-hydroxy-2-[4-((R)-2,2,2-trifluoro-1-hydroxy-ethyl)-phenyl]-2-aza-spiro[4.5]decan-1-one] | 14.6
CN1CCN(C[C@]2(O)CC[C@]3(CCN(c4ccc([C@@H](O)C(F)(F)F)cc4)C3=O)CC2)C1=O [Example 10, (5α,8α)-8-Hydroxy-8-(3-methyl-2-oxo-imidazolidin-1-ylmethyl)-2-[4-((R)-2,2,2-trifluoro-1-hydroxy-ethyl)-phenyl]-2-aza-spiro[4.5]decan-1-one] | 136
C[C@@H](Oc1ccc(N2CC[C@]3(CC[C@@](O)(CN4C(=O)CCC45CC5)CC3)C2=O)cc1)C(F)(F)F [Example 11, (5α,8α)-8-hydroxy-8-((5-oxo-4-azaspiro[2.4]heptan-4-yl)methyl)-2-(4-((R)-1,1,1-trifluoropropan-2-yloxy)phenyl)-2-azaspiro[4.5]decan-1-one] | 7.1
C[C@H](Oc1ccc(N2CC[C@]3(CC[C@@](O)(CN4C(=O)CCC45CC5)CC3)C2=O)cn1)C(F)(F)F [Example 12, (5α,8α)-8-hydroxy-8-((5-oxo-4-azaspiro[2.4]heptan-4-yl)methyl)-2-(6-((S)-1,1,1-trifluoropropan-2-yloxy)pyridin-3-yl)-2-azaspiro[4.5]decan-1-one] | 9.7
O=C1CCC2(CC2)N1C[C@]1(O)CC[C@]2(CCN(c3ccc(OCC(F)(F)F)cc3)C2=O)CC1 [Example 13, (5α,8α)-8-Hydroxy-8-(5-oxo-4-aza-spiro[2.4]hept-4-ylmethyl)-2-[4-(2,2,2-trifluoro-ethoxy)-phenyl]-2-aza-spiro[4.5]decan-1-one] | 7.5
O=C1OCC2(CC2)N1C[C@]1(O)CC[C@]2(CCN(c3ccc(OCC(F)(F)F)cc3)C2=O)CC1 [Example 15, (5α,8α)-8-Hydroxy-8-(5-oxo-6-oxa-4-aza-spiro[2.4]hept-4-ylmethyl)-2-[4-(2,2,2-trifluoro-ethoxy)-phenyl]-2-aza-spiro[4.5]decan-1-one] | 990
O=C1OCCN1C[C@]1(O)CC[C@]2(CCN(c3ccc(OCC(F)(F)F)cc3)C2=O)CC1 [Example 16, (5α,8α)-8-Hydroxy-8-(2-oxo-oxazolidin-3-ylmethyl)-2-[4-(2,2,2-trifluoro-ethoxy)-phenyl]-2-aza-spiro[4.5]decan-1-one] | 150
O=C1CCC2(CC2)N1C[C@]1(O)CC[C@]2(CCN(c3ccc([C@@H](O)C(F)(F)F)cc3)C2=O)CC1 [Example 17, (5α,8α)-8-Hydroxy-8-(5-oxo-4-aza-spiro[2.4]hept-4-ylmethyl)-2-[4-((R)-2,2,2-trifluoro-1-hydroxy-ethyl)-phenyl]-2-aza-spiro[4.5]decan-1-one] | 40
